# Data published in PubChem BioAssay AID298 (DTP/NCI, 2004).
# Where “and” joins values, the source holds several entries; their conditions need not be identical. Equal entries are not always repeated. Results filed as inconclusive are left out.
# Tested on: MX-1 breast xenograft, intrarenal, nude mice, tumor weight
# Assay: NCI In Vivo Anticancer Drug Screen. Data for tumor model Human Mammary Carcinoma MX-1 Xenograft (intrarenal inoculation) in NU/NU BALB/C (nude) mice
# Conditions: endpoint: mean tumor weight change, higher = larger tumour
# Method in brief: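 Mice w/ transplanted tumors, drug vs vehicle; endpoint survival or tumor size; value = T/C.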
smiles,measurement,setting,value
Cc1cc(N)c2ccccc2[n+]1CCCCCCCCCC[n+]1c(C)cc(N)c2ccccc21,T/C,"dose: 0.75 mg/kg/injection, schedule: Q01DX010 (ip), vehicle: dextrose",89 % of control
same,T/C,"dose: 1.5 mg/kg/injection, schedule: Q01DX010 (ip), vehicle: dextrose",79 % of control
same,T/C,"dose: 2.0 mg/kg/injection, schedule: Q01DX010 (ip), vehicle: dextrose",47 % of control
same,T/C,"dose: 3.0 mg/kg/injection, schedule: Q01DX010 (ip), vehicle: dextrose",41 % of control
CCCCCc1cc(/C=C2/N=C(c3ccc[nH]3)C=C2OC)[nH]c1C,T/C,"dose: 16.0 mg/kg/injection, schedule: Q04DX003 (sc), vehicle: saline with Tween-80",93 % of control
same,T/C,"dose: 32.0 mg/kg/injection, schedule: Q04DX003 (sc), vehicle: saline with Tween-80",93 % of control
same,T/C,"dose: 64.0 mg/kg/injection, schedule: Q04DX003 (sc), vehicle: saline with Tween-80",75 % of control
same,T/C,"dose: 128.0 mg/kg/injection, schedule: Q04DX003 (sc), vehicle: saline with Tween-80",46 % of control
CS(=O)(=O)OCCN(CCOS(C)(=O)=O)c1ccc(C=Nc2ccc(-c3csc(COc4ccccc4)n3)cc2)cc1,T/C,"dose: 50.0 mg/kg/injection, schedule: Q01DX010 (sc), vehicle: Klucel (hydroxypropylcellulose) (HPC)",13 % of control
same,T/C,"dose: 100.0 mg/kg/injection, schedule: Q01DX010 (sc), vehicle: Klucel (hydroxypropylcellulose) (HPC)",-6 % of control
same,T/C,"dose: 100.0 mg/kg/injection, schedule: Q04DX003 (ip), vehicle: Klucel (hydroxypropylcellulose) (HPC)",24 % of control
same,T/C,"dose: 100.0 mg/kg/injection, schedule: Q04DX003 (sc), vehicle: Klucel (hydroxypropylcellulose) (HPC)",32 % of control
same,T/C,"dose: 200.0 mg/kg/injection, schedule: Q01DX010 (sc), vehicle: Klucel (hydroxypropylcellulose) (HPC)",-61 % of control
same,T/C,"dose: 200.0 mg/kg/injection, schedule: Q04DX003 (ip), vehicle: Klucel (hydroxypropylcellulose) (HPC)",3 % of control
same,T/C,"dose: 200.0 mg/kg/injection, schedule: Q04DX003 (sc), vehicle: Klucel (hydroxypropylcellulose) (HPC)",18 % of control
CC(C)CC(=O)NC(C(=O)NC(C(=O)NC(CC(C)C)C(O)CC(=O)NC(C)C(=O)NC(CC(C)C)C(O)CC(=O)O)C(C)C)C(C)C (stereo unspecified),T/C,"dose: 150.0 mg/kg/injection, schedule: Q04DX002 (ip), vehicle: Klucel (hydroxypropylcellulose) (HPC)",47 % of control
same,T/C,"dose: 150.0 mg/kg/injection, schedule: Q04DX003 (ip), vehicle: Klucel (hydroxypropylcellulose) (HPC)",85 % of control
same,T/C,"dose: 300.0 mg/kg/injection, schedule: Q04DX002 (ip), vehicle: Klucel (hydroxypropylcellulose) (HPC)",57 % of control
same,T/C,"dose: 600.0 mg/kg/injection, schedule: Q04DX002 (ip), vehicle: Klucel (hydroxypropylcellulose) (HPC)",21 % of control
CN(CN1C(=O)CCC1=O)CN1C(=O)CCC1=O,T/C,"dose: 150.0 mg/kg/injection, schedule: Q04DX003 (ip), vehicle: saline",91 % of control
same,T/C,"dose: 300.0 mg/kg/injection, schedule: Q04DX003 (ip), vehicle: saline",61 % of control
Cc1ccc(C(=Nc2ccccc2)N=P(c2ccccc2)(c2ccccc2)c2ccccc2)cc1,T/C,"dose: 50.0 mg/kg/injection, schedule: Q04DX003 (ip), vehicle: saline with Tween-80",68 % of control
same,T/C,"dose: 100.0 mg/kg/injection, schedule: Q04DX003 (ip), vehicle: saline with Tween-80",45 % of control
CC(=O)OCN(C)C=O,T/C,"dose: 300.0 mg/kg/injection, schedule: Q01DX010 (ip), vehicle: suspension in saline",105 % of control
same,T/C,"dose: 600.0 mg/kg/injection, schedule: Q01DX010 (ip), vehicle: suspension in saline",75 % of control
same,T/C,"dose: 600.0 mg/kg/injection, schedule: Q01DX010 (sc), vehicle: saline",88 % of control
same,T/C,"dose: 1200.0 mg/kg/injection, schedule: Q01DX010 (sc), vehicle: saline",104 % of control
same,T/C,"dose: 2400.0 mg/kg/injection, schedule: Q01DX010 (sc), vehicle: saline",78 % of control
COc1cccc2c1[C@H]1CO[C@H]3C4C[C@H](C(=O)O)C([C@@H](C2)N13)N4C (stereo partly specified),T/C,"dose: 1.25 mg/kg/injection, schedule: Q04DX003 (ip), vehicle: other",50 % of control
same,T/C,"dose: 2.5 mg/kg/injection, schedule: Q04DX003 (ip), vehicle: other",32 % of control and 33 % of control
same,T/C,"dose: 5.0 mg/kg/injection, schedule: Q04DX003 (ip), vehicle: other",16 % of control and 19 % of control
same,T/C,"dose: 7.5 mg/kg/injection, schedule: Q04DX003 (ip), vehicle: water",9 % of control
same,T/C,"dose: 10.0 mg/kg/injection, schedule: Q04DX003 (ip), vehicle: other",8 % of control and 9 % of control
same,T/C,"dose: 15.0 mg/kg/injection, schedule: Q04DX003 (ip), vehicle: water",2 % of control
same,T/C,"dose: 20.0 mg/kg/injection, schedule: Q04DX003 (ip), vehicle: other",2 % of control
same,T/C,"dose: 30.0 mg/kg/injection, schedule: Q04DX003 (ip), vehicle: water",2 % of control
